Results on three compounds are retold here after patent US11123683B2, “Carbon dioxide absorbent and apparatus of separating and recovering carbon dioxide” (Kabushiki Kaisha Toshiba, priority 2017, dated 2021).

Each structure is given as a SMILES string.

This series in a line: pKa of amino group of the heterocyclic ring. In kind it is physicochemical. The settings on record: amino group in heterocyclic ring.
As a reminder, the pKa is the pH at which an ionisable group is half protonated. A high value points to a weaker acid or stronger base. For the compound `CC(=O)CN1CCNCC1` [1-(1-piperazinyl)-2-propanone], the pKa turned out to be 9.1.
Turning to `O=C1CNCC(=O)N1` [2,6-piperazinedione], the pKa was 4.3.
The same measure for `CN1CC(CO)NCC1=O` (stereo not drawn) [5-hydroxymethyl-1-methyl-2-piperazinone]: 6.6.
